Consider two compounds from ChEMBL document CHEMBL5523723, “G Protein-Coupled Estrogen Receptor-Mediated Anti-Inflammatory and Mucosal Healing Activity of a Trimethylpyridinol Analogue in Inflammatory Bowel Disease” (J Med Chem, 2024).

The test system of experiment [1] is Mus musculus. The experiment can be described thus: Antiinflammatory activity against DSS-induced chronic colitis in C57BL/6N/Crl mouse model assessed as recovery of body weight at 300 mg/kg, po administered daily 6 days per week for 5 weeks. It counts as functional.
The test system of experiment [2] is Rattus norvegicus. Description: Antiinflammatory activity against TNBS-induced colitis in Sprague-Dawley rat model assessed as recovery of colon weight at 300 mg/kg, po administered for 5 days. In kind it is functional. To be noted: time 5 day.
Experiment [3] deals with Rattus norvegicus. The experiment can be described thus: Antiinflammatory activity against TNBS-induced colitis in Sprague-Dawley rat model assessed as recovery of body weight at 300 mg/kg, po administered for 5 days. It counts as functional. To be noted: time 5 day.
The test system of experiment [4] is Mus musculus. The experiment can be described thus: Antiinflammatory activity against DSS-induced chronic colitis in C57BL/6N/Crl mouse model assessed as recovery of colon weight at 300 mg/kg, po administered daily 6 days per week for 5 weeks. In kind it is functional.
For experiment [5], the system named is Mus musculus. The experiment can be described thus: Antiinflammatory activity against DSS-induced chronic colitis in C57BL/6N/Crl mouse model assessed as recovery of colon weight at 30 mg/kg, po administered daily 6 days per week for 5 weeks.
In experiment [6] the test system is Mus musculus. Description: Antiinflammatory activity against DSS-induced chronic colitis in C57BL/6N/Crl mouse model assessed as recovery of body weight at 30 mg/kg, po administered daily 6 days per week for 5 weeks.

For the compound `O=C(O)c1cc(/N=N/c2ccc(S(=O)(=O)Nc3ccccn3)cc2)ccc1O` [SULFASALAZINE], the Activity in the experiment with Mus musculus [1] is 22.8%; with Rattus norvegicus [2] it was 78.4%; with Rattus norvegicus [3], 58.3%; with Mus musculus [4], 66.9%.
Turning to `C[C@@H]1CCN(C(=O)CC#N)C[C@@H]1N(C)c1ncnc2[nH]ccc12` [TOFACITINIB], the values for the Activity in the experiment with Mus musculus [5] and with Mus musculus [6] were 68.2% and 29.5%, respectively.
